Assay results taken from patent US20070191317A1, “VITAMIN D ANALOG - RAK, METHODS AND USES THEREOF” (WISCONSIN ALUMNI RESEARCH FOUNDATION, priority 2006, published 2007).
Entries after “also recorded” stand apart in the source; their conditions may differ.

Legend:
[1] = cited from earlier work; for calcemic activity: as compared to 1α,25-dihydroxyvitamin D3
[2] = target: T1, vitamin D receptors (Homo sapiens, UniProt P11473); conditions: cited from earlier work
T1 sequence (P11473 1-427): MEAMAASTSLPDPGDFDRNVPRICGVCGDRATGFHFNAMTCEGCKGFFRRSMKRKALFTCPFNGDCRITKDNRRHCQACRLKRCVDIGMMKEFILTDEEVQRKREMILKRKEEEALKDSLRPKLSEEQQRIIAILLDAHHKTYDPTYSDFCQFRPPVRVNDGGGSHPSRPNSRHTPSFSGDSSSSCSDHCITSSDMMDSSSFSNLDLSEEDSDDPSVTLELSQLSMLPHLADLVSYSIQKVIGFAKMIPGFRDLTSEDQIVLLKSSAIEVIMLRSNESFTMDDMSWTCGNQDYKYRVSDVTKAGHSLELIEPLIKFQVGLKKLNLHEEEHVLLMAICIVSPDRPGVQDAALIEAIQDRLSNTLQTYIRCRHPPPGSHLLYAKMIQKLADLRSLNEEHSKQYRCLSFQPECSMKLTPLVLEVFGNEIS

[3] = Bone calcium mobilization (serum calcium); format: in vivo, Sprague-Dawley rats; conditions: rats, ip, FIG. 2
Method: FIG. 2 is a bar graph comparing the bone calcium mobilization activity of RAK with that of 1,25(OH)2D3.
(§1) Male, weanling Sprague-Dawley rats were placed on Diet 11 (0.47% Ca) diet+AEK for one week followed by Diet 11 (0.02% Ca)+AEK for 3 weeks. The rats were then switched to a diet containing 0.47% Ca for one week followed by two weeks on a diet containing 0.02% Ca. Dose administration began during the last week on 0.02% calcium diet. Four consecutive ip doses were given approximately 24 hours apart. Twenty-four hours after the last dose, blood was collected from the severed neck and the concentration of serum calcium determined as a measure of bone calcium mobilization. The first 10 cm of the intestine was also collected for intestinal calcium transport analysis using the everted gut sac method.

[4] = Intestinal calcium transport (everted gut sac method); format: in vivo, Sprague-Dawley rats; conditions: rats, ip; at equimolar quantities of the dose of 1α,25-dihydroxyvitamin D3; FIG. 3
Method: FIG. 3 is a bar graph comparing the intestinal calcium transport activity of RAK with that of 1,25(OH)2D3.
as §1

[5] = target: T2, full-length recombinant rat vitamin D receptor (Rattus norvegicus, UniProt P13053); experiment: Vitamin D receptor competitive binding with [3H]-1,25-(OH)2-D3; conditions: relative to 1α,25-dihydroxyvitamin D3; FIG. 1
T2 construct: Full-length recombinant rat receptor was expressed in E. coli; histidine tag (C); made in house; host or cells: E. coli BL21(DE3) Codon Plus RIL
T2 sequence (P13053 1-423): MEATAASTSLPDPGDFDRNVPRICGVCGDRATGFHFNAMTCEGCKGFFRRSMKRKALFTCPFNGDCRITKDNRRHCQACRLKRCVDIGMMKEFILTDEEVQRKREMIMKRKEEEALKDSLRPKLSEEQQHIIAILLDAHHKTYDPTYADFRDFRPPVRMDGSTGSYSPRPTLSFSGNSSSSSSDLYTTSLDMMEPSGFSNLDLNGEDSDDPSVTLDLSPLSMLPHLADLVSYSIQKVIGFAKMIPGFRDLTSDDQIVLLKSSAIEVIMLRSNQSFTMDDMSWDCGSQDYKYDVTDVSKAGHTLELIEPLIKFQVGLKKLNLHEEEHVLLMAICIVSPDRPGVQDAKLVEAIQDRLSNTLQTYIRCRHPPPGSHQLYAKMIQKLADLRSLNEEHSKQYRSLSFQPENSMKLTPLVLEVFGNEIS
Method: The first system was a nickel affinity resin that utilizes the C-terminal histidine tag on this protein. The protein that was eluted from this resin was further purified using ion exchange chromatography (S-Sepharose Fast Flow). Aliquots of the purified protein were quick frozen in liquid nitrogen and stored at −80° C. until use. For use in binding assays, the protein was diluted in TEDK50 (50 mM Tris, 1.5 mM EDTA, pH7.4, 5 mM DTT, 150 mM KCl) with 0.1% Chaps detergent. The receptor protein and ligand concentration was optimized such that no more than 20% of the added radiolabeled ligand was bound to the receptor.
The following day, 100 mcl of hydroxylapatite slurry (50%) was added to each tube and mixed at 10-minute intervals for 30 minutes. The hydroxylapaptite was collected by centrifugation and then washed three times with Tris-EDTA buffer (50 mM Tris, 1.5 mM EDTA, pH 7.4) containing 0.5% Titron X-100. After the final wash, the pellets were transferred to scintillation vials containing 4 ml of Biosafe II scintillation cocktail, mixed and placed in a scintillation counter. Total binding was determined from the tubes containing only radiolabeled ligand.

[6] = system: HL-60 cells; experiment: HL-60 differentiation (nitro blue tetrazolium reduction); format: cell-based, human; conditions: relative to 1α,25-dihydroxyvitamin D3; FIG. 4
Method: FIG. 4 is a graph comparing the percent HL-60 cell differentiation as a function of the concentration of RAK with that of 1,25(OH)2D3.
The study drugs were dissolved in ethanol and the concentrations determined using UV spectrophotometry. Serial dilutions were prepared so that a range of drug concentrations could be tested without changing the final concentration of ethanol (<0.2%) present in the cell cultures.
Human promyelocytic leukemia (HL60) cells were grown in RPMI-1640 medium containing 10% fetal bovine serum. The cells were incubated at 37° C. in the presence of 5% CO2.
HL60 cells were plated at 1.2×10^5 cells/ml. Eighteen hours after plating, cells in duplicate were treated with drug. Four days later, the cells were harvested and a nitro blue tetrazolium reduction assay was performed (Collins et al., 1979; J. Exp. Med. 149:969-974). The percentage of differentiated cells was determined by counting a total of 200 cells and recording the number that contained intracellular black-blue formazan deposits. Verification of differentiation to monocytic cells was determined by measuring phagocytic activity (data not shown).

[7] = system: 24-hdyroxylase (24Ohase) gene promoter; experiment: In vitro transcription assay (luciferase reporter) in ROS 17/2.8 (bone) cells; format: cell-based; conditions: Ros17/2.8 (bone) cells, relative to 1α,25-dihydroxyvitamin D3; FIG. 5
Method: FIG. 5 is a graph comparing the in vitro transcription activity of RAK with that of 1,25(OH)2D3.
Transcription activity was measured in ROS 17/2.8 (bone) cells that were stably transfected with a 24-hdyroxylase (24Ohase) gene promoter upstream of a luciferase reporter gene (Arbour et al., 1998). Cells were given a range of doses. Sixteen hours after dosing the cells were harvested and luciferase activities were measured using a luminometer. (RLU=relative luciferase units)

Compound: 1α-hydroxy-2-methylene-19-nor-(20S)-homopregnacalciferol
- calcemic activity [1]: little if any calcemic activity
- binding activity to vitamin D receptors [2]: relatively high binding activity

Compound: 1α-hydroxy-2-methylene-19-nor-bishomopregnacalciferol
- calcemic activity [1]: little if any calcemic activity
- binding activity to vitamin D receptors [2]: relatively high binding activity

Compound: C[C@H](CCCC(C)(C)O)[C@H]1CC[C@H]2/C(=C/C=C3C[C@@H](O)C[C@H](O)C3)CCC[C@]12C [1α,25-dihydroxy-19-nor-vitamin D3]
- calcium mobilizing activity ([1]; in vivo): very low

Compound: C=C1[C@H](O)CC(=C/C=C2\CCC[C@]3(C)[C@@H](CC)CC[C@@H]23)C[C@H]1O [1α-hydroxy-2-methylene-19-nor-pregnacalciferol]
- calcemic activity [1]: little if any calcemic activity
- binding activity to vitamin D receptors [2]: relatively high binding activity

Compound: C=C1[C@H](O)CC(=C/C=C2\CCC[C@]3(C)[C@@H]([C@H](C)CCCC(C)O)CC[C@@H]23)C[C@H]1O (stereo partly drawn) [RAK, (20R,25R)-2-Methylene-19,26-dinor-1α,25-dihydroxyvitamin D3]
- calcemic activity measured by bone calcium mobilization ([3]; at 27 time molar quantity of the dose of 1α,25-dihydroxyvitamin D3): limited calcemic activity
- calcemic activity measured by bone calcium mobilization ([3]; at equimolar quantities of the dose of 1α,25-dihydroxyvitamin D3): limited calcemic activity; also recorded: very low ability to mobilize calcium from bone
- calcemic activity measured by intestinal calcium transport [4]: limited calcemic activity; also recorded: very low intestinal calcium transport activity
- binding to the recombinant vitamin D receptor [5]: comparable to 1α,25-dihydroxyvitamin D3; also recorded: relatively high binding
- inducing differentiation of HL-60 cells [6]: equally active as 1α,25-dihydroxyvitamin D3
- stimulating transcription of a reporter gene [7]: equally active
